Assay results published in patent US20120238554A1, “SALTS OF POTASSIUM ATP CHANNEL OPENERS AND USES THEREOF” (priority 2007, published 2012).
Where two headings read alike, the source gives them in different places.

Tests used:
[1] = Excipient compatibility study for diazoxide choline salt; type: physicochemical
[2] = Moisture sorption analysis; type: physicochemical
Protocol: Moisture Sorption Analysis was performed with a Hiden IGAsorp Moisture Sorption Instrument, Samples were first dried at 0% relative humidity at 25° C. until an equilibrium weight was reached, or for a maximum of 4 hours. Samples were then subjected to an isothermal (25° C.) scan from 10-90% relative humidity in steps of 10%. The samples were allowed to equilibrate to an asymptotic weight at each point for a maximum of 4 hours. Following absorption, a desorption scan from […] relative humidity (at 25° C.) was run in steps of −10%, again allowing a maximum of 4 hours for the samples to equilibrate. The resulting samples after desorption were dried at 80° C. for two hours and analyzed by XRPD.

[3] = Form conversion and degradation under thermal stress (60° C.)
Protocol: Studies were also conducted to evaluate the likelihood for conversion and degradation under thermal stress.

healthy volunteers [4] = system: healthy volunteers
Protocol: (§1) A randomized double-blind, placebo-controlled clinical trial was conducted in 24 healthy volunteers. They were randomized in a 2:1 ratio of treated to placebo. […] The dose was administered once per day in the morning for a period of 7 days. A number of lipid parameters were measured at baseline and again on day 7 including fasting triglycerides, total cholesterol, LDL cholesterol, HDL cholesterol, and non-HDL cholesterol. Additionally, blood pressure was measured on a daily basis.

healthy volunteers [5] = system: healthy volunteers; remark: listed apart in the source
Protocol: as §1
In PK008, the dose was administered as one and one ½ tablet formulation K′.

[6] = system: hypertriglyceridemic patients; assay: Crossover of formulations U and K′ (435 mg/day diazoxide choline): lipid responses; type: in vivo, human; details: 15 days, 435 mg/day diazoxide choline once daily
Protocol: (§2) A clinical study was conducted in 12 hypertriglyceridemic patients. […] Treatment continued for 16 days. The endpoint of the study was percentage change from baseline to day 15 of triglycerides, total cholesterol, LDL cholesterol, HDL cholesterol and non-HDL cholesterol. Lipid parameters were measured at baseline and on days 7 and 15. Blood pressure was collected at multiple time points.

[7] = system: hypertriglyceridemic patients
Protocol: as §2, with “After day 8 they were crossed over from one formulation to the other formulation. […]” for “Treatment continued for 16 days.”

[8] = pH 2
Protocol: Solubility concentrations were determined using area-percent calculations with HPLC calibration curves.

[9] = mouse, in vivo; for AUC0-6: 50 mg/kg
Protocol: The study used 4 mice dosed per treatment arm. Following, a single intravenous or oral dose, administered by gavage, pharmacokinetic samples were collected at 4 time points: 0.5, 1, 3, and 6 hours post-dosing. Two mice were sampled at each timepoint, with each mouse contributing samples to two timepoints. Each test drug was administered as a 50 mg/kg dose, which yields nearly equal molar concentrations. […] Blood samples were collected into tubes containing dipotassium EDTA as the anticoagulant and placed on ice packs until centrifugation (at 3000 rpm for 10 minutes at 4° C.). After centrifugation, samples were stored at −70° C. until they were thawed for analysis. Circulating drug levels were measured using a precise and reproducible LC-MS/MS assay.

[10] = Slurry studies of inter-conversion of the solid form; details: n-heptane, dichloromethane; for inter-conversion of the solid form in slurry: room temperature, 7 and 14 days, toluene (Table 16 Form B: CH2Cl2, THF, t-AmOH)
[11] = Polymorph screening crystallizations and characterization of forms (XRPD, DSC, TGA); type: physicochemical
Protocol: DSC analysis were conducted with a Mettler 822 DSC, by measuring the amount of energy released by a sample, as the sample was heated from 30° C. to between 300-500° C. at a rate of 10° C./min. Typical applications of DSC analysis include determination of melting point temperature and the heat of melting; measurement of the glass transition temperature; curing and crystallization studies; and identification of phase transformations.
TGA measurements were conducted with a Mettler 851 SDTA/TGA, by measuring weight loss as a function of increasing temperature, as the samples were heated from 30° C. to 230° C. at a rate of 10° C./min. The TCA can be used to analyze desorption and decomposition behavior, characterize oxidation behavior, set burnout or conditioning parameters (temperature/ramp rate/time), and determine chemical composition.
XRPD samples were analyzed with a Shimadzu XRD-6000 system, using a Cu Kα, 40 kV, 40 mA X-ray tube. The divergence and scatter slits were 1.00 deg, and the receiving slit was 0.30 mm. Samples were continuously scanned at a range of 3.0-45.0 deg, with a step size of 0.04 deg., at a scan rate of 2 deg/min.
After hot filtration the vials were placed in a refrigerator (4° C.) for 16 hours. […] All solids were dried in vacuo at ambient temperature and 30 in. Hg.
After hot filtration the vials were then slowly cooled to room temperature at the rate of 20° C./h and stirred at room temperature for 1-2 hours. All solids were dried in vacuo at ambient temperature and 30 in. Hg.
Solvents for crystallizations were chosen based on the solubility screen summarized below.

[12] = 300 mg diazoxide/day, formulation U
[13] = baseline to day 7, 300 mg diazoxide/day as formulation U
[14] = Study EC004, 435 mg diazoxide choline, 7 days
[15] = Study TR002, 508 mg diazoxide choline, 49 days
[16] = 25° C., listed as Potassium diazoxide salt

CC1=Nc2ccc(Cl)cc2S(=O)(=O)N1 [Diazoxide Control]
diazoxide choline salt assayed in mixture with excipient ([1]; 1 Month 40° C./75% RH): 99.0 % (w/w) | diazoxide choline salt assayed in mixture with excipient ([1]; 1 Month 50° C.): 99.4 % (w/w)

CC1=Nc2ccc(Cl)cc2S(=O)(=O)[N-]1.C[N+](C)(C)CCO [diazoxide choline]
hydrate formation (hysteresis upon desorption) ([2]; 25° C.): does not form a stable hydrate | Moisture Sorption (hygroscopicity) ([2]; 25° C., listed as Choline diazoxide salt): deliquescent - | Moisture Sorption (hygroscopicity) ([2]; 25° C., listed as choline salt of diazoxide): hygroscopic | moisture absorbed ([2]; 80% relative humidity, 25° C.): over 28% | crystalline form after moisture sorption/desorption (XRPD) ([2]; listed as choline salt of diazoxide): changed to an alternate crystalline form | degradation under thermal stress (HPLC gradient area percent) [3]: did not show any significant degradation | form conversion and degradation under thermal stress (XRPD, DSC) [3]: consistent with the starting material, as well as the presence of additional unique peaks | HDL cholesterol, Percent change from base-line (healthy volunteers [4]; 300 mg diazoxide/day, 7 days): 8.2% | LDL cholesterol, Percent change from base-line (healthy volunteers [4]; 300 mg diazoxide/day, 7 days): −5.4% | Total cholesterol, Percent change from base-line (healthy volunteers [4]; 300 mg diazoxide/day, 7 days): −2.3% | Triglycerides, Percent change from base-line (healthy volunteers [4]; 300 mg diazoxide/day, 7 days): −13.2% | non-HDL cholesterol, Percent change from base-line (healthy volunteers [4]; 300 mg diazoxide/day, 7 days): −6.3% | HDL cholesterol, Baseline mean ± SEM (healthy volunteers [4]; [12]): 49 ± 3.3 mg/dL | HDL cholesterol, Day 7 mean ± SEM (healthy volunteers [4]; [12]): 53 ± 2.9 mg/dL | LDL cholesterol, Baseline mean ± SEM (healthy volunteers [4]; [12]): 111 ± 5.8 mg/dL | LDL cholesterol, Day 7 mean ± SEM (healthy volunteers [4]; [12]): 105 ± 4.9 mg/dL | Total cholesterol, Baseline mean ± SEM (healthy volunteers [4]; [12]): 175 ± 7.5 mg/dL | Total cholesterol, Day 7 mean ± SEM (healthy volunteers [4]; [12]): 171 ± 6.4 mg/dL | Triglycerides, Baseline mean ± SEM (healthy volunteers [4]; [12]): 76 ± 7.8 mg/dL | Triglycerides, Day 7 mean ± SEM (healthy volunteers [4]; [12]): 66 ± 3.9 mg/dL | non-HDL cholesterol, Baseline mean ± SEM (healthy volunteers [4]; [12]): 126 ± 6.6 mg/dL | non-HDL cholesterol, Day 7 mean ± SEM (healthy volunteers [4]; [12]): 118 ± 5.5 mg/dL | increase HDL cholesterol (healthy volunteers [4]; [13]): 8.2% | reduction in total cholesterol, LDL cholesterol and non-HDL cholesterol versus placebo arm (healthy volunteers [4]; [13]): reduction in the diazoxide choline treated arm was greater | reduction of triglycerides (healthy volunteers [4]; [13]): 13.2% | reduction in diastolic blood pressure (healthy volunteers [5]; 7 days, 300 mg diazoxide/day as formulation U, healthy volunteers): 6.2 mmHg | Diastolic blood pressure, Baseline (healthy volunteers [5]; [14]): 69.4 mmHg | Diastolic blood pressure, End of treatment (healthy volunteers [5]; [14]): 63.2 mmHg | Systolic blood pressure, Baseline (healthy volunteers [5]; [14]): 113.2 mmHg | Systolic blood pressure, End of treatment (healthy volunteers [5]; [14]): 113.5 mmHg | Diastolic blood pressure, Baseline (healthy volunteers [5]; [15]): 77.7 mmHg | Diastolic blood pressure, End of treatment (healthy volunteers [5]; [15]): 67.0 mmHg | Systolic blood pressure, Baseline (healthy volunteers [5]; [15]): 118.1 mmHg | Systolic blood pressure, End of treatment (healthy volunteers [5]; [15]): 117.0 mmHg | HDL cholesterol [6]: marked increase | triglycerides, total cholesterol, LDL cholesterol and nonHDL cholesterol [6]: marked reductions | average drop in standing blood pressure ([7]; 7 days of treatment): ~8 mmHg | standing diastolic blood pressure ([7]; after 7 days of treatment, baseline 80): 75.5 mmHg | standing systolic blood pressure ([7]; after 7 days of treatment, baseline 123): 112 mmHg | supine diastolic blood pressure ([7]; after seven days of treatment, baseline 69): 62.5 mmHg | supine systolic blood pressure ([7]; after seven days of treatment, baseline 121): 116 mmHg | average drop in supine blood pressure ([7]; seven days of treatment): ~6 mmHg | solid form after the solubility analysis (XRPD) [8]: changed back to the free form diazoxide | Absolute oral bioavailability [9]: 100% | AUC0-6 ([9]; iv): 137.176 µg·h/mL | AUC0-6 ([9]; po): 141.26 µg·h/mL | inter-conversion of the solid form in slurry ([10]; listed as Choline Diazoxide Salt): no propensity of inter-conversion

CC1=NS(=O)(=O)c2cc(Cl)ccc2[N-]1.[K+] [potassium salt of diazoxide]
crystalline form after moisture sorption/desorption (XRPD) [2]: changed to an alternate crystalline form | Moisture Sorption (hygroscopicity) ([2]; 25° C.): hygroscopic | hydrate formation (hysteresis upon desorption) ([2]; 25° C.): hemihydrate from 0-30% RH and a monohydrate from 35-75% RH | Moisture Sorption (hygroscopicity) [2, 16]: deliquescent - | hydrate formation (hysteresis upon desorption) [2, 16]: hemi/monohydrate | water absorbed ([2]; 60% RH, 25° C.): 5.4 wt % | water absorbed ([2]; 90% RH, 25° C.): 38.3 wt % | degradation under thermal stress (HPLC gradient area percent) ([3]; 60° C., 14 days): did not show any significant degradation | form conversion and degradation under thermal stress (XRPD, DSC) ([3]; 60° C., closed, protected from light, 7 and 14 days): showed unique peaks | Form ([11]; Table 26, slow cooling, Water): Free form | Form ([11]; Table 30, single solvent, fast-cooling, MeCN): C + D | solid form after the solubility analysis (XRPD) [8]: changed back to the free form diazoxide | degradation after slurry study (HPLC gradient area percent) ([10]; toluene, 14 days): did not show any significant degradation | inter-conversion of the solid form in slurry [10]: no propensity of inter-conversion
